In brackets after ≈: the same amount, converted by molar mass. Entries after “also recorded” stand apart in the source; their conditions may differ.
How the values were obtained:
[1] = test system: Staphylococcus aureus (S. aureus), Strain #6538; assay: Primary stage MIC measurement of antibiotic alone (2-fold dilutions, OD 600 nm growth curves); format: cell-based; settings: for MIC: Staphylococcus aureus, read-out: MIC values for S. aureus found in the present study (in-house primary MIC)
Procedure: An isolated colony of S. aureus bacteria was picked from afresh streak plate (no more than 1 week old). The colony was transferred into 3-4 ml of TSB and incubated overnight in an orbital shaker at 35° C.-37° C.
The following day, the turbidity of the actively-growing broth culture was adjusted with Calcium-adjusted Mueller Hinton broth II (MHBII) to be equivalent to that of a 0.5 McFarland standard (1×10^8 CFU/ml). The broth culture was maintained under ambient conditions prior to use.
No more than 15 minutes prior to use, the culture was further diluted 20 fold in MHBII to obtain a final 5×10^6 CFU/ml stock suspension.
The method used in this stage was based on the classic Minimum Inhibitory Concentration (MIC) measurements, as described by the Clinical and Laboratory Standards Institute (CLSI) document M07-A9: “Method for Dilution Antimicrobial Susceptibility Test for Bacteria that Grow Aerobically”. While classic MIC measurements require visual inspection of plates for bacterial growth after 18 hours, growth was monitored in the present study according to optical density (OD) at 600 nm, using an ELISA reader (MultiSkan™ FC ELISA reader, Thermo Fisher Scientific, Massachusetts, USA), thereby obtaining bacterial growth curves for tested antibiotic solutions.
A 96-well assay plate layout (Corning Cat #3596) was prepared as follows:
Columns 1 and 3-12: 100 μl of MHBII alone was added to each well.
[…]: 200 μl of a solution of antibiotic in MHBII at the highest concentration to be tested was added to each well.
A series of 2-fold dilutions was performed, wherein 100 μl of solution of antibiotic was withdrawn from each well of column 2, transferred to the corresponding well of column 3, and mixed.
The dilution was then repeated by transfer from column 3 to column 4, and so on, until column 11, when the 100 μl of solution of antibiotic withdrawn from each well of column 11 was discarded.
The plate was then incubated at 37° C. with shaking in the ELISA reader and the optical density at 600 nm was read every 20 minutes for a total of 18 hours.
The average OD reading obtained for each antibiotic concentration was calculated and plotted against time to obtain a growth curve.
The MIC was determined as the first antibiotic concentration at which […] by the end of the 18-hour period.

[2] = test system: Staphylococcus aureus (S. aureus), Strain #6538; assay: Secondary stage: antibiotic alone or blank ORC extracted in antibiotic, bacterial growth curves (ET50); format: cell-based; settings: antibiotic solution with versus without ORC
Procedure: Blank ORC pads i.e. ORC pads which had not been impregnated with antibiotic (referred to herein as “blank ORC pads”), were subjected to extraction in a solution of antibiotic in PBS for three hours at ambient temperature.
Due to the acidity of ORC, which provides some antibiotic effect, the size of the pad used was small i.e. approximately 1×1.5 inch, weighing between 65-75 mg (70 mg on average) in order to prevent the ORC from affecting the final pH of the assay and therefore the growth of the bacteria.
15 ml tubes, each containing 3 ml of an antibiotic solution at a known concentration in sterile PBS, were prepared in duplicate. […]
The plate was incubated at 37° C. with shaking in the ELISA reader and the optical density at 600 nm was read every 20 minutes for a total of 18 hours.
The average and standard deviation for OD readings was calculated for each time point of the wells using Excel. […]
The average values were also entered into the GraphPad Prism program (GraphPad Software Inc., CA, USA) in order to calculate the Effective Time 50 (ET50) i.e. the time, in minutes, required for the antibiotic to induce a response halfway between the baseline and maximum, where the maximum is the bacterial growth in MHBII with PBS. This provides a quantifiable measure of the efficacy of the antibiotics tested and enables comparison of the various samples tested. […]

S. aureus [3] = settings: published values; cited from earlier work
S. aureus [4] = assay: Tertiary stage: antimicrobial activity of antibiotic-impregnated ORC extracts (ET50, MIC); format: cell-based, Staphylococcus aureus; settings: for Antibiotic-impregnated ORC (tertiary) MIC: single antibiotic impregnated onto ORC pad; for Result (ET50): ORC pad
Procedure: The maximum OD is determined by bacterial growth in MHBII without the chemical.
Solutions comprising different concentrations of antibiotics to be tested were prepared in methanol.
Blank ORC pads of dimensions 1×1.5 inch, weighing between 65-75 mg (70 mg on average), in duplicate, were immersed in the antibiotic solutions and then dried using a rotary evaporator to provide “antibiotic-impregnated ORC pads”.
15 ml test tubes containing 3 ml of sterile PBS were prepared, and the antibiotic-impregnated ORC pads were immersed in the tubes and incubated for 3-5 hours at ambient temperature on a roller mixer (Stuart, Cat #SRT9D).
Each of the above extracts was filtered out using a sterile 0.8/0.2 μm syringe filter into a clean 15 ml tube. These extraction fluids are referred to herein as “antibiotic-impregnated ORC extracts”.
Briefly, ORC patches weighing on average 70 mg each were impregnated with the selected antibiotic. Antibiotic-impregnated ORC extracts were prepared by immersion and incubation in 3 ml of sterile PBS for 3 hours at ambient temperature. The ORC was then removed and any remaining ORC particles were filtered out using a […] syringe filter. This extraction fluid was then diluted 10-fold into Muller Hinton growth medium containing bacteria. Bacterial growth was monitored every 20 min for a total of 18 hours according to optical density (OD) at 600 nm, using an ELISA reader.
Since the study included many possible combinations of two antibiotics, each with their own different concentration range, a matrix of possible antibiotic concentrations was designed, and ORC pads prepared accordingly (see Table 10). Since all the possible combinations could not be fitted into one 96 well plate, a series of MIC experiments were carried out.

[5] = test system: Staphylococcus aureus (S. aureus), Strain #6538; assay: Secondary stage: antibiotic alone or blank ORC extracted in antibiotic, bacterial growth curves (ET50); format: cell-based; settings: presence of ORC pads (not impregnated), read-out: MIC upon addition of a small amount of ORC to the growth medium

In the case of Gentamycin [Gentamicin], the “MIC values for S. aureus found in the present study (in-house primary MIC)” value ([1]; absence of ORC) is given as 0.25 µg/mL, the “Effect of addition of ORC on the antibiotic activity” value [2] is given as “decreased antibiotic activity; also recorded: impaired by ORC and MIC was increased” and the “MIC values for S. aureus according to CLSI” value (S. aureus [3]) is given as 0.12 to 1 µg/mL.

For `CCC[C@@H]1C[C@@H](C(=O)N[C@@H]([C@H]2O[C@H](SC)[C@H](O)[C@@H](O)[C@H]2O)[C@H](C)Cl)N(C)C1` [Clindamycin, clindamycin], the “Antibiotic-impregnated ORC (tertiary) MIC” value (from here on “Antibiotic-impregnated ORC”) (S. aureus [4]) was 0.015 µg/mL, the “MIC as single antibiotic in the absence of ORC (first stage MIC results)” value (“MIC as single antibiotic in the absence” for short) [1] was 0.062 µg/mL and the MIC ([1]; absence of ORC) was 0.062 µg/mL (≈ 0.146 µM).

In the case of `CN(C)c1ccc(O)c2c1C[C@H]1C[C@H]3[C@H](N(C)C)C(O)=C(C(N)=O)C(=O)[C@@]3(O)C(O)=C1C2=O` [Minocycline, minocycline], the “Result (ET50)” value (S. aureus [4]; 0.54 μg Minocycline + 0.00 μg Clindamycin per gr ORC) is reported as 637.6 min, the “Result (ET50)” value (S. aureus [4]; 0.54 μg Minocycline + 0.00 μg Rifampin per gr ORC) is reported as 585.4 min and the “Result (ET50)” value (S. aureus [4]; 1.08 μg Minocycline + 0.00 μg Clindamycin per gr ORC) is reported as 1072 min. For the same compound, the “Result (ET50)” value (S. aureus [4]; 1.08 μg Minocycline + 0.00 μg Rifampin per gr ORC) was 799.9 min, the “Result (ET50)” value (S. aureus [4]; 2.16 μg Minocycline + 0.00 μg Clindamycin per gr ORC) was greater than 2000 min and the “Result (ET50)” value (S. aureus [4]; 2.16 μg Minocycline + 0.00 μg Rifampin per gr ORC) was greater than 2000 min. The “Result (ET50)” value (S. aureus [4]; 2.70 μg Minocycline + 0.00 μg Clindamycin per gr ORC) was greater than 2000 min, the “Result (ET50)” value (S. aureus [4]; 2.70 μg Minocycline + 0.00 μg Rifampin per gr ORC) was greater than 2000 min and the MIC (S. aureus [4]; Staphylococcus aureus, single antibiotic impregnated onto ORC, read-out: MIC of minocycline together with ORC, ORC impregnated with minocycline) was 0.0126 µg/mL. For the same compound, the “Minocycline concentration sufficient for growth inhibition of S. aureus in combination” value (S. aureus [4]; impregnated onto ORC together with rifampin or clindamycin) was 1.26 ng/mL, the “Antibiotic-impregnated ORC” value (S. aureus [4]) was 0.0126 µg/mL and the “Fold reduction of the MIC when impregnated onto ORC in combination with an additional antibiotic” value (S. aureus [4]; versus single antibiotic in the absence of ORC (first stage MIC)) was 200. The “MIC as single antibiotic in the absence” value [1] was 0.25 µg/mL, the MIC ([1]; absence of ORC) was 0.25 µg/mL (≈ 0.546 µM) and the MIC [5] was 0.05 µg/mL.

For `CO[C@H]1/C=C/O[C@@]2(C)Oc3c(C)c(O)c4c(O)c(c(/C=N/N5CCN(C)CC5)c(O)c4c3C2=O)NC(=O)/C(C)=C\C=C\[C@H](C)[C@H](O)[C@@H](C)[C@@H](O)[C@@H](C)[C@H](OC(C)=O)[C@@H]1C` [Rifampin, rifampin], the “Result (ET50)” value (S. aureus [4]; 0.00 μg Minocycline + 31.41 μg Rifampin per gr ORC) was 406.8 min, the “Result (ET50)” value (S. aureus [4]; 0.00 μg Minocycline + 62.82 μg Rifampin per gr ORC) was 442.3 min and the “Result (ET50)” value (S. aureus [4]; 0.00 μg Minocycline + 125.64 μg Rifampin per gr ORC) was 450.4 min. The “Result (ET50)” value (S. aureus [4]; 0.00 μg Minocycline + 157.05 μg Rifampin per gr ORC) was 418.1 min, the “Rifampin concentration sufficient for growth inhibition of S. aureus in combination” value (S. aureus [4]; impregnated onto ORC together with 1.26 ng/ml minocycline) was 366.5 ng/mL and the “Antibiotic-impregnated ORC” value (S. aureus [4]) was 0.733 µg/mL. For the same compound, the “Change of antimicrobial activity when impregnated onto the ORC pad” value (S. aureus [4]; versus first stage MIC) was “activity was impaired”, the “MIC as single antibiotic in the absence” value [1] was 0.015 µg/mL and the MIC ([1]; absence of ORC) was 0.015 µg/mL (≈ 0.0182 µM). The “Effect of addition of ORC on the antibiotic activity” value [2] was “ORC interferes with the antibiotic activity of rifampin; also recorded: impaired by ORC and MIC was increased” and the “MIC values for S. aureus according to CLSI” value (S. aureus [3]) was 0.004 to 0.015 µg/mL.

— patent publication US11000635B2, “Antimicrobial compositions comprising minocycline and oxidized cellulose” (priority 2017, dated 2021)
